# Test results: patent US4318916A, “Antibiotic PS-5 and derivatives having β-lactamase inhibitory activity and production thereof” (Sanraku-Ocean Co., Ltd., priority 1977, dated 1982)
# Read-outs that look alike come from different tables or passages of the source.
# Columns and labels:
# [1] = system: Alcaligenes faecalis B-326; experiment: MIC by broth dilution (Table 13); assay type: cell-based; details: B326, 20 h
# Description: (§1) The MIC (minimum inhibitory concentration) values of the compound were determined on various pathogenic microorganisms including several resistant strains, utilizing the broth dilution method in BRAIN HEART INFUSION BROTH `Eiken` (EIKEN CHEMICAL CO., LTD.).
# (§2) The results were read after incubation at 35° C. for 20 hours. The minimum inhibitory concentration (MIC) values means the lowest concentration unit of the tritylation product of the antibiotic PS-5 was no growth of the corresponding microorganism was observed under the above described conditions. As the control antibiotics,the solutions of ampicillin and cephaloridine were prepared in BRAIN HEART INFUSION BROTH `Eiken` (pH 7.0) at a concentration of 100 μg/ml and treated same as the test compound of the present invention.
# Citrobacter freundii E-9 [2] = experiment: MIC by broth dilution (Table 13); assay type: cell-based; details: E9, 20 h
# Description: as §1, §2
# [3] = system: Diplococcus pneumoniae Type III; experiment: MIC by broth dilution (Table 13); assay type: cell-based; details: Streptococcus pneumoniae, 20 h
# Description: as §1, §2
# Enterobacter sp. E-8 [4] = experiment: MIC by broth dilution (Table 13); assay type: cell-based; details: SP.E8, 20 h
# Description: as §1, §2
# Escherichia coli K12 = experiment: MIC by broth dilution (Table 13); assay type: cell-based; details: 20 h
# Description: as §1, §2
# [5] = system: Klebsiella pneumoniae K-2; experiment: MIC by broth dilution (Table 13); assay type: cell-based; details: K2, 20 h
# Description: as §1, §2
# [6] = system: Pseudomonas aeruginosa P-1; experiment: MIC by broth dilution (Table 13); assay type: cell-based; details: P1, 20 h
# Description: as §1, §2
# Sarcina lutea S-19 = experiment: MIC by broth dilution (Table 13); assay type: cell-based; details: Micrococcus luteus, S19, 20 h
# Description: as §1, §2
# [7] = system: Staphylococcus aureus FDA 209p; experiment: MIC by broth dilution (Table 13); assay type: cell-based; details: FDA209P, 20 h
# Description: as §1, §2
# [8] = system: Staphylococcus aureus Smith; experiment: MIC by broth dilution (Table 13); assay type: cell-based; details: 20 h
# Description: as §1, §2
# [9] = system: Streptococcus pyogenes NY-5; experiment: MIC by broth dilution (Table 13); assay type: cell-based; details: NY5, 20 h
# Description: as §1, §2
# male ddy mice = assay type: in vivo; details: 500 mg/kg intraperitoneally
# Description: An aqueous solution of the antibiotic PS-5 sodium salt was intraperitoneally administered to male ddy mice (Shizuoka) at the dose of 500 mg/kg.
# [10] = system: Alcaligenes faecalis B-326; experiment: MIC by broth dilution (Table 8); assay type: cell-based; details: B326, 20 h, read-out: Minimum inhibitory concentration
# Description: (§3) The MIC values of antibiotic PS-5 sodium salt were determined on various pathogenic microorganisms including resistant strains by the broth dilution method utilizing the BRAIN HEART INFUSION BROTH `Eiken` (EIKEN CHEMICAL CO., LTD.).
# (§4) The antibiotic PS-5 sodium salt was dissolved in BRAIN HEART INFUSION BROTH `Eiken` (EIKEN CHEMICAL CO., LTD.) (pH 7.0) at concentration in the range of 5-50 μg/ml, from which appropriate dilution series were made in the same liquid medium. The microorganisms listed in Table 8 were cultivated for 18 hours in BRAIN HEART INFUSION BROTH `Eiken` at 28° C. and inoculated into the said dilution series of antibiotic PS-5 at a final inoculum size of 1×10^5 cells/ml. The cultures were allowed to stand at 35° C. for 20 hours, and then the growth of the microorganisms was read at each dilution of antibiotic PS-5. The minimum inhibitory concentration (MIC) represents the smallest concentration of the antibiotic PS-5 (sodium salt) where no propagation of the relevant microorganism was visually confirmed. As the controls, two known beta-lactam antibiotics, cephaloridine and cefoxitin were dissolved in brain heart infustion broth at pH 7.0 at concentrations ranging from 1 μg/ml to 100 μ g/ml and then diluted to make several dilution series in the above mentioned liquid medium. These samples were treated as described above for the MIC determinations. In addition to the MIC values of antibiotic PS-5, those of cephaloridine and cefoxitin are included for reference.
# Citrobacter freundii E-9 [11] = experiment: MIC by broth dilution (Table 8); assay type: cell-based; details: E9, 20 h, read-out: Minimum inhibitory concentration
# Description: as §3, §4
# [12] = system: Enterobacter aerogenes E-19; experiment: MIC by broth dilution (Table 8); assay type: cell-based; details: Klebsiella aerogenes, E19, 20 h, betalactamase producer, read-out: Minimum inhibitory concentration
# Description: as §3, §4
# [13] = system: Enterobacter cloacae E-16; experiment: MIC by broth dilution (Table 8); assay type: cell-based; details: E16, 20 h, betalactamase producer, read-out: Minimum inhibitory concentration
# Description: as §3, §4
# Enterobacter sp. E-8 [14] = experiment: MIC by broth dilution (Table 8); assay type: cell-based; details: SP.E8, 20 h, read-out: Minimum inhibitory concentration
# Description: as §3, §4
# Escherichia coli K 12 = experiment: MIC by broth dilution (Table 8); assay type: cell-based; details: K12, 20 h, read-out: Minimum inhibitory concentration
# Description: as §3, §4
# [15] = system: Klebsiella pneumoniae K-2; experiment: MIC by broth dilution (Table 8); assay type: cell-based; details: K2, 20 h, betalactamase producer, read-out: Minimum inhibitory concentration
# Description: as §3, §4
# Proteus mirabilis P-6 = experiment: MIC by broth dilution (Table 8); assay type: cell-based; details: P6, 20 h, resistant to kanamycin, gentamicin and tobramycin, read-out: Minimum inhibitory concentration
# Description: as §3, §4
# Proteus rettgeri P-7 = experiment: MIC by broth dilution (Table 8); assay type: cell-based; details: Providencia rettgeri, P7, 20 h, resistant to gentamicin and tobramycin, read-out: Minimum inhibitory concentration
# Description: as §3, §4
# Proteus sp. P-22 = experiment: MIC by broth dilution (Table 8); assay type: cell-based; details: 20 h, read-out: Minimum inhibitory concentration
# Description: as §3, §4
# Proteus vulgaris P-5 = experiment: MIC by broth dilution (Table 8); assay type: cell-based; details: P5, 20 h, betalactamase producer, read-out: Minimum inhibitory concentration
# Description: as §3, §4
# Providencia sp. P-8 = experiment: MIC by broth dilution (Table 8); assay type: cell-based; details: SP.P8, 20 h, resistant to kanamycin, gentamicin and tobramycin, read-out: Minimum inhibitory concentration
# Description: as §3, §4
# Serratia marcescens S-18 = experiment: MIC by broth dilution (Table 8); assay type: cell-based; details: S18, 20 h, betalactamase producer, read-out: Minimum inhibitory concentration
# Description: as §3, §4
# [16] = system: Staphylococcus aureus Russell; experiment: MIC by broth dilution (Table 8); assay type: cell-based; details: 20 h, read-out: Minimum inhibitory concentration
# Description: as §3, §4
smiles,measurement,setting,value
"CCC1C(=O)N2C(C(=O)OC(c3ccccc3)(c3ccccc3)c3ccccc3)=C(SCCNC(C)=O)CC12 (single isomer, unassigned) [Trityl PS-5]",MIC,"[1]; Alcaligenes faecalis B-326, read-out: MIC",1.25 µg/mL
same,MIC,"Citrobacter freundii E-9 [2]; Citrobacter freundii E-9, read-out: MIC",5 µg/mL
same,MIC,"[3]; Diplococcus pneumoniae Type III, read-out: MIC",0.08 µg/mL
same,MIC,"Enterobacter sp. E-8 [4]; Enterobacter sp. E-8, read-out: MIC",10 µg/mL
same,MIC,Escherichia coli K12,5.37 µg/mL
same,MIC,"[5]; Klebsiella pneumoniae K-2, read-out: MIC",10.7 µg/mL
same,MIC,"[6]; Pseudomonas aeruginosa P-1, read-out: MIC",> 43 µg/mL
same,MIC,"Sarcina lutea S-19; Sarcina lutea S-19, read-out: MIC",0.27 µg/mL
same,MIC,"[7]; Staphylococcus aureus FDA 209p, read-out: MIC",0.17 µg/mL
same,MIC,"[8]; Staphylococcus aureus Smith, read-out: MIC",0.27 µg/mL
same,MIC,"[9]; Streptococcus pyogenes NY-5, read-out: MIC",0.17 µg/mL
same,Deaths after intraperitoneal administration,"male ddy mice; listed as trityl ester of the antibiotic PS-5, 500 mg/kg",did not provoke any dead
same,Deaths after intraperitoneal administration,"male ddy mice; listed as trityl ester, 500 mg/kg",does not provoke any dead
"O=C(Cc1cccs1)N[C@@H]1C(=O)N2C(C(=O)[O-])=C(C[n+]3ccccc3)CS[C@H]12 [Cephaloridine, cephaloridine]",MIC,[10]; Alcaligenes faecalis,6.25 µg/mL
same,MIC,Citrobacter freundii E-9 [11]; Citrobacter freundii,> 100 µg/mL
same,MIC,[12],> 100 µg/mL
same,MIC,[13],> 100 µg/mL
same,MIC,Enterobacter sp. E-8 [14]; Enterobacter,3.13 µg/mL
same,MIC,Escherichia coli K 12; Escherichia coli,2.5 µg/mL
same,MIC,[15],6.25 µg/mL
same,MIC,Proteus mirabilis P-6,12.5 µg/mL
same,MIC,Proteus rettgeri P-7,100 µg/mL
same,MIC,Proteus sp. P-22,> 100 µg/mL
same,MIC,Proteus vulgaris P-5,> 100 µg/mL
same,MIC,Providencia sp. P-8,> 100 µg/mL
same,MIC,Serratia marcescens S-18,> 100 µg/mL
same,MIC,[16]; Staphylococcus aureus,0.125 µg/mL
same,MIC,[1]; Alcaligenes faecalis,6.25 µg/mL
same,MIC,Citrobacter freundii E-9 [2]; Citrobacter freundii,> 100 µg/mL
same,MIC,[3],0.01 µg/mL
same,MIC,Enterobacter sp. E-8 [4]; Enterobacter,> 100 µg/mL
same,MIC,Escherichia coli K12,2.5 µg/mL
same,MIC,[5]; Klebsiella pneumoniae,10 µg/mL
same,MIC,[6]; Pseudomonas aeruginosa,> 20 µg/mL
same,MIC,Sarcina lutea S-19,0.05 µg/mL
same,MIC,[7]; Staphylococcus aureus,0.04 µg/mL
same,MIC,[8]; Staphylococcus aureus,0.04 µg/mL
same,MIC,[9]; Streptococcus pyogenes,0.01 µg/mL
"CCC1C(=O)N2C(C(=O)O)=C(SCCNC(C)=O)CC12 (single isomer, unassigned) [Antibiotic PS-5]",MIC,[10]; Alcaligenes faecalis B-326,0.78 µg/mL
same,MIC,"Citrobacter freundii E-9 [11]; Citrobacter freundii E-9, betalactamase producer",3.13 µg/mL
same,MIC,[12],6.25 µg/mL
same,MIC,[13],12.5 µg/mL
same,MIC,"Enterobacter sp. E-8 [14]; Enterobacter sp. E-8, betalactamase producer",3.13 µg/mL
same,MIC,Escherichia coli K 12; Escherichia coli K 12,2.5 µg/mL
same,MIC,[15],3.13 µg/mL
same,MIC,Proteus mirabilis P-6,6.25 µg/mL
same,MIC,Proteus rettgeri P-7,3.13 µg/mL
same,MIC,Proteus sp. P-22; Proteus sp. P-22,6.25 µg/mL
same,MIC,Proteus vulgaris P-5,12.5 µg/mL
same,MIC,Providencia sp. P-8,6.25 µg/mL
same,MIC,Serratia marcescens S-18,6.25 µg/mL
same,MIC,"[16]; Staphylococcus aureus Russell, PS-5 as sodium salt",0.31 µg/mL
same,Deaths after intraperitoneal administration,male ddy mice,does not provoke any dead
